# Data from PubChem BioAssay AID1996.
# Details: buffer; pH 7.4; 200.0 µM
row,Structure (SMILES),solubility kinetic [µg/mL]
1,CN1CCN(c2ccccc2NC(=O)c2ccc(F)cc2)CC1,> 47
2,Br.C=CCN1C2=NCCCN2c2ccccc21,> 44.1
3,O=C(c1ccc2nc[nH]c2c1)N1CCN(c2cccc(Cl)c2)CC1,42.7
4,O=C(CN1CCCC1)Nc1c(C(=O)C2CC2)oc2ccccc12,31.8
5,CCC(=O)c1c(NC(CC)CO)cc(C)oc1=O (stereo unspecified),> 38
6,CC(=O)c1cccc(NS(=O)(=O)N2CCOCC2)c1,> 42.6
7,NC(=O)c1c(/N=C/c2cccs2)sc2c1CCCC2,18.4
8,Cc1ccc(C(C)C)c(OCCCN2CCc3ccccc3C2)c1.Cl,3.1
9,COC(=O)c1ccc(COc2cccnc2[N+](=O)[O-])cc1,4.2
10,O=C(CCc1ccncc1)N1CCCC(Nc2ccc(F)cc2)C1 (stereo unspecified),45.6
11,Cc1nn(-c2ccccc2)c(C)c1CN,> 30.2
12,O=C(Cc1ccc(F)cc1)Nc1ccc(Cl)cn1,8.1
13,Cc1ccc(-c2cc(C(=O)N3CCC4(CC3)OCCO4)no2)cc1,44
14,COc1ccc(Cc2noc(-c3ccc([N+](=O)[O-])cc3)n2)cc1OC,2
15,Cc1ccc(NC(=O)c2cccnc2)cc1C,> 33.9
16,CN(CC(=O)Nc1ccccc1Cl)C1CCCCC1,14.7
17,O=C(O)C1C2CCC(O2)C1C(=O)Nc1cccc(Cl)c1 (stereo unspecified),40.6
18,CC(C)CN(C(=O)CSc1nncn1C)C1CCS(=O)(=O)C1 (stereo unspecified),> 52
19,C#CCOc1ccc(Cl)cc1/C=C1/C(=O)ON=C1C,> 41.4
20,COc1ccc(N2CC(C(=O)N3CCCC(C)C3)CC2=O)cc1 (stereo unspecified),> 47.5
21,CC1(c2ccccc2)CC(c2ccccc2)=Nc2ccccc2N1 (stereo unspecified),5.8
22,CC(=O)c1c(C)[nH]c(C(=O)NCc2ccccc2F)c1C,41.6

row,Structure (SMILES),solubility kinetic [µg/mL]
1,COc1ccc(C(C)(C)C)cc1NC(=O)COC(=O)C(C)C,33.1
2,O=C(Nc1ccncc1)c1ccc2ncsc2c1,35.6
3,CC(=O)NCc1ccc(C(=O)O)cc1,> 29
4,CC1(NS(=O)(=O)c2ccc(Cl)s2)CCS(=O)(=O)C1 (stereo unspecified),> 49.5
5,CN(C)S(=O)(=O)NCCNc1ccc(C(F)(F)F)cc1[N+](=O)[O-],18.2
6,COCCn1c(SCC(=O)N2CCOCC2)nc2ccccc2c1=O,51.5
7,O=C1c2ccccc2CN1Cc1ccccc1,> 33.5
8,Cc1cc(C)c(S(=O)(=O)NCc2cccnc2)cc1C,> 43.6
9,COc1cc(NC(=O)c2ccc(S(=O)(=O)N(C)c3ccccc3)cc2)cc(OC)c1,5
10,Oc1ccc(N2CCN(Cc3nc4ccccc4[nH]3)CC2)cc1,> 46.3
11,CC(C)(C)NC(=O)CN(Cc1ccccc1)S(=O)(=O)c1ccccc1,38.7
12,CSc1nc(=S)n(-c2ccc([N+](=O)[O-])cc2)c(C)c1C(C)=O,48.2
13,Nc1ccccc1C(=O)NCCN1CCNC1=O,14.2
14,Cc1ccc(NC(=O)Cn2c(=O)oc3ccccc32)cc1,7.2
15,O=C(Cc1ccc(Br)cc1)N1CCOCC1,38.8
16,Cl.O=C(CN1CCCCC1)c1ccc2c(c1)OCO2,> 42.6
17,COC(=O)[C@H](CC(C)C)NC(=O)N1CCCCC1,> 38.5
18,Cc1ccc(C(=O)Nc2ccc(C)c(S(=O)(=O)N3CCOCC3)c2)c(C)c1,37.9
19,Cc1cc(C)c(NC(=O)COC(=O)C2CCCO2)c(C)c1 (stereo unspecified),> 43.7
20,O=C(Nc1cccc(O)c1)c1cccc(NC(=O)c2cccs2)c1,> 50.8
21,COC(=O)C(C)Nc1cccc(Br)c1 (stereo unspecified),21.8
22,CC1C(=O)C(C)C(c2ccc(O)cc2)NC1c1ccc(O)cc1 (stereo unspecified),45.4

row,Structure (SMILES),solubility kinetic [µg/mL]
1,CCOC(=O)/C(C#N)=C/C1=C(N2CCOCC2)C(C)(C)OCC1,> 48.1
2,O=C(Nc1ccc2c(c1)OCO2)c1cc(Cl)ccn1,6.1
3,COC(=O)c1ccc(CO/N=C/c2ccc(OC)cc2OC)cc1,< 0.7
4,O=C(CCCc1nc(-c2ccccc2)no1)NC1CCCCC1,13.7
5,Cc1ccc(Cc2nc3ccccc3[nH]2)cc1,31.8
6,COc1ccccc1NC(=O)N1CCN(c2ccnc3cc(Cl)ccc23)CC1,18.5
7,CCOc1ccc(NCc2cc3cc(OC)ccc3[nH]c2=O)cc1,2.1
8,COc1ccc(OC)c(Nc2nc(N)nc(CCl)n2)c1,22.4
9,COC(=O)C1CCN(C(=O)c2cc(=O)[nH]c3ccccc23)CC1,> 47.2
10,COc1ccc(O)c(CN2CCN(CCc3ccccc3)C(CCO)C2)c1 (stereo unspecified),54
11,Cc1ccc(NC(=O)c2ccc3nsnc3c2)c(Cl)c1,0.5
12,Cc1ccccc1CC(=O)Nc1ccc2c(c1)CCC2,< 0.6
13,O=C(CNC(=O)c1ccc(Cl)cc1)NCc1ccccn1,> 45.6
14,CCCCOc1ccc(-c2ncc([N+](=O)[O-])cn2)cc1,< 0.2
15,COc1ccc(NC(=O)c2ccc3nc[nH]c3c2)c(OC)c1,42.9
16,C=C(C)n1c(=O)n(Cc2ccccc2C)c2ccccc21,16
17,COc1ccc(NC(=O)NCc2ccc(Cl)cc2)cc1,0.3
18,CC12CCC(C(=O)NCc3ccccc3Cl)(OC1=O)C2(C)C (stereo unspecified),> 48.3
19,CCC(C)N1CCN(S(=O)(=O)Cc2ccccc2)CC1 (stereo unspecified),> 44.5
20,Cc1ccsc1C(=O)OCC(=O)N1CCN(c2ccccc2)CC1,> 51.7
21,CC(=O)Nc1ccc(C(=O)NCCN2CCOCC2)cc1,36
22,CC(C)(C)OC(=O)C(C)(C)Sc1nnc(N)s1,> 41.3

row,Structure (SMILES),solubility kinetic [µg/mL]
1,COc1cc(CN2CCc3c([nH]c4ccccc34)C2)cc(OC)c1,26
2,O=C(COC(=O)c1ccco1)NCCc1ccc(Cl)cc1,> 46.2
3,O=C(NCCCn1ccnc1)c1ccc2ccccc2c1,34.8
4,O=C(CCNC(=O)c1ccccc1)NNC(=O)c1ccccc1Br,> 58.5
5,COc1ccc(NC(=O)CSc2ccccn2)c([N+](=O)[O-])c1,7.3
6,COc1ccc(Cl)cc1NC(=S)N1CCCCCC1,42.7
7,Cc1nnc(SCC(=O)Nc2cccc(N)c2)n1-c1ccccc1,> 50.9
8,O=C(Nc1cccc2ncccc12)c1cccc(Br)c1,16.2
9,CCOC(=O)C(=O)NCC(c1ccco1)S(=O)(=O)c1cccs1 (stereo unspecified),> 53.6
10,O=C(Nc1ccc(OC(F)(F)F)cc1)c1ccc2c(c1)no[n+]2[O-],1.1
11,O=C(/C=C/c1ccco1)Nc1ccc2nc3n(c(=O)c2c1)CCCC3,3.7
12,Cc1ccccc1C1CCCN(Cc2nc(CC3CC3)no2)C1 (stereo unspecified),24.1
13,Cl.c1cncc(CNC2CCCCC2)c1,> 34
14,CC(C)[C@H](NS(=O)(=O)c1ccccc1)C(=O)OCC(=O)NCc1ccc2c(c1)OCO2,> 67.3
15,O=[N+]([O-])c1cccc(Oc2cnccn2)c1,31.8
16,COc1ccc(NC(=O)CN2C(=O)COc3ccccc32)cc1OC,3
17,COc1ccc(CC(=O)Nc2ccc(N3CCCC3)c(C)c2)cc1,8.9
18,O=C(c1ccc(Cl)cc1)N1CCc2c([nH]c3ccccc23)C1C(F)(F)F (stereo unspecified),1.4
19,Nc1ncnc(Sc2ncccn2)c1[N+](=O)[O-],> 37.5
20,COc1ccccc1NS(=O)(=O)c1cc(NC(=O)c2cc(F)c(F)c(F)c2F)ccc1N1CCOCC1,3.6
